Laboratory results taken from ChEMBL document CHEMBL5131559, “Discovery and Preclinical Profiling of GSK3839919, a Potent HIV-1 Allosteric Integrase Inhibitor” (ACS Med Chem Lett, 2022).

What was measured:
[1] = system: Human immunodeficiency virus 1; assay: Antiviral activity against recombinant HIV1 NLRep-Rluc harbouring polymorphic T124/T125 integrase infected in human MT-2 cells assessed as inhibition of virus growth in presence of fetal bovine serum by measuring luciferase activity after 4 days; format: functional, organism-based; conditions: Human immunodeficiency virus 1, NLRep, MT2, 96 h
[2] = Cytotoxicity against human MT2 cells; format: toxicity, cell-based
[3] = Metabolic stability in human liver microsomes assessed as parent compound disappearance by measuring half life at 0.5 uM in presence of NADPH by LC-MS/MS analysis; format: ADME, Microsome
[4] = Toxicity in human Huh-7 cells assessed as fold change in lipid droplet count at 10 uM incubated for 48 hrs by plate reader assay; format: cell-based; conditions: huh-7, 48 h
[5] = system: Human immunodeficiency virus 1; assay: Antiviral activity against recombinant HIV1 NLRep-Rluc harbouring polymorphic N124/A125 integrase infected in human MT-2 cells assessed as inhibition of virus growth in presence of fetal bovine serum by measuring luciferase activity after 4 days; format: functional, organism-based; conditions: Human immunodeficiency virus 1, NLRep, MT2, 96 h
[6] = Toxicity in rat Hepatoma cell line assessed as fold change in lipid droplet count at 10 uM incubated for 48 hrs by plate reader assay; format: cell-based
[7] = Oral bioavailability in CD-1 mouse at 5 mg/kg by LC-MS/MS analysis; format: ADME, organism-based; conditions: in vivo
[8] = Clearance in Sprague-Dawley rat at 1 mg/kg, iv by LC-MS/MS analysis; format: ADME, organism-based; conditions: in vivo
[9] = Clearance in cynomolgus monkey at 1 mg/kg, iv by LC-MS/MS analysis; format: ADME, organism-based, Macaca fascicularis; conditions: in vivo
[10] = AUC (0 to infinity) in CD-1 mouse at 5 mg/kg, po by LC-MS/MS analysis; format: ADME, organism-based; set-up: time infinity, dose 5 mg/kg, route po; conditions: in vivo
[11] = AUC (0 to infinity) in cynomolgus monkey at 2 mg/kg, po by LC-MS/MS analysis; format: ADME, organism-based, Macaca fascicularis; set-up: time infinity, dose 2 mg/kg, route po; conditions: in vivo
[12] = AUC (0 to infinity) in Sprague-Dawley rat at 5 mg/kg, po by LC-MS/MS analysis; format: ADME, organism-based; set-up: time infinity, dose 5 mg/kg, route po; conditions: in vivo
[13] = Oral bioavailability in Beagle dog at 2 mg/kg by LC-MS/MS analysis; format: ADME, organism-based, Canis lupus familiaris; conditions: in vivo
[14] = system: Human immunodeficiency virus 1; assay: Antiviral activity against recombinant HIV1 NLRep-Rluc harbouring polymorphic T124/A125 integrase infected in human MT-2 cells assessed as inhibition of virus growth in presence of fetal bovine serum by measuring luciferase activity after 4 days; format: functional, organism-based; conditions: Human immunodeficiency virus 1, NLRep, MT2, 96 h
[15] = Clearance in CD-1 mouse at 1 mg/kg, iv by LC-MS/MS analysis; format: ADME, organism-based; conditions: in vivo
[16] = system: Human immunodeficiency virus 1; assay: Antiviral activity against recombinant HIV1 NLRep-Rluc harbouring polymorphic A124/T125 integrase infected in human MT-2 cells assessed as inhibition of virus growth in presence of fetal bovine serum by measuring luciferase activity after 4 days; format: functional, organism-based; conditions: Human immunodeficiency virus 1, NLRep, MT2, 96 h
[17] = Toxicity in rat assessed as hepatocellular vacuolation at 200 mg/kg,po for 1 week; format: organism-based; conditions: in vivo, 168 h, time 1 weeks
Hepatoma cell line = assay: Cytotoxicity against rat Hepatoma cell line at 40 to 80 uM; format: toxicity, cell-based; conditions: dose 40-80 µM
Huh-7 = assay: Cytotoxicity against human Huh-7 cells at 40 to 80 uM; format: toxicity, cell-based; conditions: huh-7, 80 µM, dose 40-80 µM
[18] = Toxicity in human Huh-7 cells assessed as fold change in lipid droplet count at 20 uM incubated for 48 hrs by plate reader assay; format: cell-based; conditions: hepatoma cell line
[19] = AUC in rat at 50 mg/kg,po qd for 1 week; format: ADME, organism-based; set-up: dose 50 mg/kg, time 1 weeks, route po; conditions: in vivo, 168 h
[20] = Oral bioavailability in Sprague-Dawley rat at 5 mg/kg by LC-MS/MS analysis; format: ADME, organism-based; conditions: in vivo
[21] = Oral bioavailability in cynomolgus monkey at 2 mg/kg by LC-MS/MS analysis; format: ADME, organism-based, Macaca fascicularis; conditions: in vivo
[22] = system: Human immunodeficiency virus 1; assay: Antiviral activity against recombinant HIV1 NLRep-Rluc harbouring polymorphic T124/V125 integrase infected in human MT-2 cells assessed as inhibition of virus growth in presence of fetal bovine serum by measuring luciferase activity after 4 days; format: functional, organism-based; conditions: Human immunodeficiency virus 1, NLRep, MT2, 96 h
[23] = Cmax in rat at 50 mg/kg,po qd for 1 week; format: ADME, organism-based; set-up: time 1 weeks, dose 50 mg/kg, route po; conditions: in vivo
[24] = Clearance in Beagle dog at 1 mg/kg, iv by LC-MS/MS analysis; format: ADME, organism-based, Canis lupus familiaris; conditions: in vivo
[25] = system: Human immunodeficiency virus 1; assay: Antiviral activity against recombinant HIV1 NLRep-Rluc harbouring polymorphic N124/T125 integrase infected in human MT-2 cells assessed as inhibition of virus growth in presence of fetal bovine serum by measuring luciferase activity after 4 days; format: functional, organism-based; conditions: Human immunodeficiency virus 1, NLRep, MT2, 96 h
[26] = AUC (0 to infinity) in Beagle dog at 2 mg/kg, po by LC-MS/MS analysis; format: ADME, organism-based, Canis lupus familiaris; set-up: time infinity, dose 2 mg/kg, route po; conditions: in vivo
[27] = system: Human immunodeficiency virus 1; assay: Antiviral activity against recombinant HIV1 NLRep-Rluc harbouring polymorphic A124/A125 integrase infected in human MT-2 cells assessed as inhibition of virus growth in presence of fetal bovine serum by measuring luciferase activity after 4 days; format: functional, organism-based; conditions: Human immunodeficiency virus 1, NLRep, MT2, 96 h
[28] = system: Human immunodeficiency virus 1; assay: Antiviral activity against recombinant HIV1 NLRep-Rluc harbouring polymorphic T124/T125 integrase infected in human MT-2 cells assessed as fold change in inhibition of virus growth in presence of fetal bovine serum by measuring luciferase activity after 4 days; format: functional; set-up: reference not given here; conditions: time 4 day

## Cc1nc(C)c([C@H](OC(C)(C)C)C(=O)O)c(N2CCC(C)(C)CC2)c1-c1ccc(OCCc2ccc(F)cc2)cc1
[1]
  EC50: 1.7 nM
[2]
  CC50: ≥ 22000 nM
[3]
  half-life at 0.5 µM: > 120 min
[4]
  fold change (FC): 3.7
[5]
  EC50: 3.8 nM
[6]
  fold change (FC): 4

## Cc1ncc(-c2ccc(OCCc3ccc(F)cc3)cc2)c(N2CCC(C)(C)CC2)c1[C@H](OC(C)(C)C)C(=O)O
[4]
  fold change (FC): 2.9
[6]
  fold change (FC): 2.5

## Cc1cccc(Cl)c1CN1CCc2cc(-c3c(C)nc(C)c([C@H](OC(C)(C)C)C(=O)O)c3N3CCC(C)(C)CC3)ccc2C1
[1]
  EC50: 3.5 nM
[7]
  bioavailability: 72%
[2]
  CC50: 22500 nM
[8]
  clearance: 3.5 mL/min/kg
[9]
  clearance: 3.3 mL/min/kg
[10]
  AUC(0-inf): 30.3 µM·h
[11]
  AUC(0-inf): 5.4 µM·h
[12]
  AUC(0-inf): 14.9 µM·h
[13]
  bioavailability: 90%
[14]
  EC50: 5.4 nM
[15]
  clearance: 3.9 mL/min/kg
[16]
  EC50: 5.8 nM
[17]
  Activity: Toxic
Hepatoma cell line
  Activity: Toxic
Huh-7
  Activity: Toxic
[4]
  fold change (FC): 4.1
[18]
  fold change (FC): 9.1
[19]
  AUC: 335 µM·h
[20]
  bioavailability: 35%
[21]
  bioavailability: 58%
[22]
  EC50: 3.2 nM
[23]
  Cmax: 32 µM
[5]
  EC50: 7.5 nM
[6]
  fold change (FC): 3.7
[24]
  clearance: 0.5 mL/min/kg
[25]
  EC50: 5.8 nM
[26]
  AUC(0-inf): 104 µM·h
[27]
  EC50: 6.5 nM

## Cc1nc(C)c([C@H](OC(C)(C)C)C(=O)O)c(N2CCC(C)(C)CC2)c1-c1ccc2c(c1)CC[C@@H](Cc1ccc(F)cc1)O2
[1]
  EC50: 1.5 nM
[2]
  CC50: ≥ 22000 nM
[28]
  fold change (FC): 5
[5]
  EC50: 7.3 nM

## Cc1nc(C)c([C@H](OC(C)(C)C)C(=O)O)c(N2CCC(C)(C)CC2)c1-c1cnn(CCCc2ccc(F)cc2)c1
[1]
  EC50: 8.8 nM
[2]
  CC50: ≥ 22000 nM
[3]
  half-life at 0.5 µM: 34 min
[28]
  fold change (FC): 4.8

## Cc1nc(C)c([C@H](OC(C)(C)C)C(=O)O)c(N2CCC(C)(C)CC2)c1-c1ccc2c(c1)CCN(c1nccc(-c3cnccn3)n1)C2
[1]
  EC50: 2.2 nM
[2]
  CC50: ≥ 17000 nM
[8]
  clearance: 2.1 mL/min/kg
[12]
  AUC(0-inf): 23.7 µM·h
[20]
  bioavailability: 38%
[5]
  EC50: 7.9 nM

## Cc1nc(C)c([C@H](OC(C)(C)C)C(=O)O)c(N2CCC(C)(C)CC2)c1-c1ccc2c(c1)CCN(c1nc3cnccc3s1)C2
[1]
  EC50: 1.5 nM
[2]
  CC50: ≥ 17000 nM
[8]
  clearance: 14.8 mL/min/kg
[12]
  AUC(0-inf): 10.8 µM·h
[20]
  bioavailability: > 100%
[5]
  EC50: 2.6 nM

## Cc1nc(C)c([C@H](OC(C)(C)C)C(=O)O)c(N2CCC(C)(C)CC2)c1-c1ccc2c(c1)CC[C@H](Cc1ccc(F)cc1)O2
[1]
  EC50: 2.5 nM
[2]
  CC50: ≥ 22000 nM
[28]
  fold change (FC): 5
[5]
  EC50: 12.8 nM

## Cc1nc(C)c([C@H](OC(C)(C)C)C(=O)O)c(N2CCC(C)(C)CC2)c1C1=CCN(CCCc2ccc(F)cc2)CC1
[1]
  EC50: 7.6 nM
[2]
  CC50: ≥ 22000 nM
[3]
  half-life at 0.5 µM: 35.5 min
[28]
  fold change (FC): 4.8

## Cc1nc(C)c([C@H](OC(C)(C)C)C(=O)O)c(N2CCC(C)(C)CC2)c1-c1ccc2c(c1)CCN(Cc1cccc(F)c1F)C2
[1]
  EC50: 4.2 nM
[2]
  CC50: ≥ 24000 nM
[8]
  clearance: 8.1 mL/min/kg
[12]
  AUC(0-inf): 8.4 µM·h
[20]
  bioavailability: 50%
[5]
  EC50: 13.6 nM

## Cc1nc(C)c([C@H](OC(C)(C)C)C(=O)O)c(N2CCC(C)(C)CC2)c1-c1ccc2c(c1)CCN(Cc1ccc(F)cc1)C2
[1]
  EC50: 5.9 nM
[2]
  CC50: ≥ 22000 nM
[3]
  half-life at 0.5 µM: 55 min
[28]
  fold change (FC): 3.7

## Cc1nc(C)c([C@H](OC(C)(C)C)C(=O)O)c(N2CCC(C)(C)CC2)c1-c1ccc2c(c1)CCN(Cc1cccc(F)c1C)C2
[1]
  EC50: 2.6 nM
[2]
  CC50: ≥ 24000 nM
[8]
  clearance: 4 mL/min/kg
[12]
  AUC(0-inf): 23.2 µM·h
[20]
  bioavailability: 64%
[5]
  EC50: 8.1 nM

## Cc1nc(C)c([C@H](OC(C)(C)C)C(=O)O)c(N2CCC(C)(C)CC2)c1-c1ccc2c(c1)CCN(c1ncnc3c1cnn3C)C2
[1]
  EC50: 2.9 nM
[2]
  CC50: ≥ 17000 nM
[8]
  clearance: 3.6 mL/min/kg
[12]
  AUC(0-inf): 36.2 µM·h
[20]
  bioavailability: 95%
[5]
  EC50: 7 nM

## Cc1nc(C)c([C@H](OC(C)(C)C)C(=O)O)c(N2CCC(C)(C)CC2)c1-c1ccc2c(c1)CCN(c1ncnc3c1oc1ccccc13)C2
[1]
  EC50: 1.5 nM
[2]
  CC50: ≥ 17000 nM
[8]
  clearance: 0.5 mL/min/kg
[12]
  AUC(0-inf): 226 µM·h
[20]
  bioavailability: 72%
[5]
  EC50: 3.4 nM

## Cc1nc(C)c([C@H](OC(C)(C)C)C(=O)O)c(N2CCC(C)(C)CC2)c1-c1ccc(OCCc2ccc(F)cc2)nc1
[1]
  EC50: 12.3 nM
[2]
  CC50: ≥ 22000 nM
[3]
  half-life at 0.5 µM: > 120 min
[28]
  fold change (FC): 7.2

## Cc1cccc(F)c1CN1CCc2cc(-c3c(C)nc(C)c([C@H](OC(C)(C)C)C(=O)O)c3N3CCC(C)(C)CC3)ccc2C1
[1]
  EC50: 5.6 nM
[2]
  CC50: ≥ 24000 nM
[8]
  clearance: 5.8 mL/min/kg
[12]
  AUC(0-inf): 16 µM·h
[20]
  bioavailability: 70%
[5]
  EC50: 5.3 nM

## Cc1nc(C)c([C@H](OC(C)(C)C)C(=O)O)c(N2CCC(C)(C)CC2)c1-c1ccc2c(c1)CCN(Cc1ccc(F)cc1F)C2
[1]
  EC50: 2.5 nM
[2]
  CC50: ≥ 24000 nM
[8]
  clearance: 20.1 mL/min/kg
[12]
  AUC(0-inf): 7.3 µM·h
[20]
  bioavailability: > 100%
[5]
  EC50: 5.4 nM

## Cc1nc(C)c([C@H](OC(C)(C)C)C(=O)O)c(N2CCC(C)(C)CC2)c1-c1cnc(OCCc2ccc(F)cc2)nc1
[1]
  EC50: 9 nM
[2]
  CC50: ≥ 22000 nM
[3]
  half-life at 0.5 µM: 22 min
[28]
  fold change (FC): 4.8
